Values joined by “and” are separate entries in the source; they are usually repeats but may differ in a detail not shown here. Identical values can stand only once. “Also recorded” adds a separate entry of the source.
What was measured:
Assay type in all cases: in vivo, mouse
[1] = Body mass of hexb−/− mice; conditions: hexb−/− mice with 4-PBA compared to wildtype
Experimental: (§1) Protocol one: Two groups of hexb^−/− mice (n=10 per group); One group was administered 4-PBA (Scandinavian Formulas, Inc.) 4 mg/ml (0.4% w/v) in drinking water at 40 d of age. Body weights and vitals were monitored, and motor neuromuscular function were assessed every other day starting at 50 d of age until end point.
(§2) To assess the efficacy of chemical chaperone 4-PBA in reducing ER stress, hexb^−/− mice were administered 4-PBA in their drinking water at 40 d of age and underwent behavioral testing beginning at 7 weeks of age. Utilizing several behavioral tests such as wire hang, body weight, and righting response, measures of degeneration of cerebellar and motor neuromuscular functions were collected (FIG. 14). […] Lastly, an analysis of survivability was conducted using a Mantel-Cox test (FIG. 14 D). […] Overall, an increase of 16 days was noted, with 127 days as the median survival age for untreated hexb^−/− mice and 143 days for 4-PBA treated hexb^−/− mice.

[2] = system: phosphorylated eukaryotic initiation factor 2 alpha (p-eIF2α); test: Immunofluorescence of p-eIF2α and YY1 in spinal cord of hexb−/− mice
From the text: (§3) Protocol Two: Two groups of hexb^−/− mice at 40 d of age (n=4 per group) were set. […] Mice were perfused at 80 d, with formalin and processed for immunocytochemistry. Spine sections from treated and untreated mice were immunolabelled with multiple antibodies and evaluated.
(§4) Spinal cords from hexb^+/+ and hexb^−/− mice were harvested at 40, 60, 80, 100, and 120 d and embedded in paraffin as described above. Samples were rehydrated, first by washing slides with xylene then by washing them with a 1:1 solution of xylene and ethanol (EtOH) followed by washes in 100% EtOH, 95% EtOH, 70% EtOH, 70% EtOH/1% lithium carbonate solution, 70% EtOH, and finally, 50% EtOH. Next, antigen retrieval in a sodium citrate buffer (pH 6) was performed by microwaving the slides at 1 min intervals until boiling and then maintaining a boil for 5 minutes. The slides were then washed with tap water followed by a wash in glycine. […]
(§5) UPR activation was assessed through immunofluorescent staining of phosphorylated eukaryotic initiation factor 2 alpha (p-eIF2α) positive neurons and transcription factor YY1 in spinal cord sections from hexb^−/− mice that were treated or untreated with 4-PBA for (FIG. 15). […] Furthermore, the degree of apoptotic events occurring during disease pathogenesis with and without 4-PBA treatment was evaluated (FIG. 16). […]

[3] = system: cleaved caspase 7; test: Immunofluorescence of cleaved caspase 7 and NeuN in spinal cord; conditions: after 4-PBA treatment vs untreated
From the text: as §3, §4, §5

[4] = system: ATF6; test: ATF6 expression after 4-PBA treatment
[5] = system: ChAT-positive motor neurons (AHNs); test: Immunofluorescence of ChAT and GFAP in anterior horn of spinal cord; conditions: 4-PBA treated hexb−/− mice
From the text: as §3
(§6) Spinal cords from hexb^+/+ and hexb^−/− mice were harvested at 40, 60, 80, 100, and 120 d and embedded in paraffin as described above. Samples were rehydrated, first by washing slides with xylene then by washing them with a 1:1 solution of xylene and ethanol (EtOH) followed by washes in 100% EtOH, 95% EtOH, 70% EtOH, 70% EtOH/1% lithium carbonate solution, 70% EtOH, and finally, 50% EtOH. Next, antigen retrieval in a sodium citrate buffer (pH 6) was performed by microwaving the slides at 1 min intervals until boiling and then maintaining a boil for 5 minutes. The slides were then washed with tap water followed by a wash in glycine. Following, the slides were then incubated with bloxall blocking solution for 10 minutes, followed by a 5 minute wash with PBS. Slides were then blocked with 2.5% horse serum for 20 minutes. Samples were then double labelled with a combination of anti-GFAP (1:100, Sigma; G9269), anti-ChAT (1:200, SIGMA), anti-Calretinin (1:200, Proteintech) and anti-NeuN (1:100, novus biologicals; N.BP1-92693). Slides were incubated with antibodies overnight at 4° C. Samples were washed with 1×PBS+0.05% TWEEN20 for 3×5 minutes, prior to application of the secondary antibody. Following, slides were double labeled with appropriate Alexa Fluor secondaries (Invitrogen, goat anti-rabbit 488: A11037, goat anti-mouse 594: A11029) and then again washed with 1×PBS+0.05% TWEEN20. Finally, the slides were mounted with ProLong Diamond antifade mountant reagent with DAPI (Invitrogen: P36966). Samples were imaged using Ziess Axiovert 200 scope equipped with an HBO 100 mercury lamp.
One of the hall marks of motor neurons within the spinal cord is the enzyme choline acetyltransferase (ChAT). […]

[6] = system: Calretinin-positive interneurons; test: Immunofluorescence of Calretinin in spinal cord sections; conditions: 4-PBA treated hexb−/− mice
From the text: as §3
as §6, with “Samples were washed with 1×PBS+0.05% TWEEN20 for 3×5 minutes, prior to application of the secondary antibody. Following, slides were double labeled with appropriate Alexa Fluor secondaries (Invitrogen, goat anti-rabbit 488: A11037, goat anti-mouse 594: A11029) and then again washed with 1×PBS+0.05% TWEEN20. Finally, the slides were mounted with ProLong Diamond antifade mountant reagent with DAPI (Invitrogen: P36966). Samples were imaged using Ziess Axiovert 200 scope equipped with an HBO 100 mercury lamp.” left out

[7] = system: hexb^−/− mice; test: Righting reflex / righting response in hexb−/− mice
Experimental: as §1, §2

[8] = system: hexb^−/− mice; test: Survival of Sandhoff (hexb−/−) mice given 4-PBA in drinking water, Mantel-Cox analysis
Experimental: Mouse work was conducted under the animal utilization protocol (AUP) in accordance with the Ontario Animals for Research Act specifications and the Animal Research Ethics Board (AREB) guidelines. The Sandhoff model mice (hexb^−/− on a C57BL/6 background) were generously donated by Dr. R. Gravel (University of Calgary, Canada) and have been previously characterized.
as §1, §2

[9] = system: muscle fibers; test: Cross-sectional area of muscle fibers from muscles surrounding the spinal cord; conditions: 4-PBA treated hexb−/− mice, 80 d
From the text: as §3
Neuromuscular deficits are a highly prevalent consequence of Sandhoff disease. Therefore, cell body sectional area of the anterior horn neurons and the cross-sectional area of muscle fibers from the muscles surrounding the spinal cord of 80 d hexb^+/+ and hexb^−/− mice were evaluated (FIG. 19). Within hexb^+/+ mice, muscle fibres have an average area of ˜1000 um^2 while in contrast hexb^−/− mice show a 44% reduction in area with an average of −570 um^2. Such a drastic reduction early in disease pathology indicates mass muscle atrophy and neuronal loss has already occurred.

[10] = system: hexb^−/− mice; test: Wire hang test in hexb−/− mice; conditions: hexb−/− mice treated with 4-PBA vs untreated
Experimental: as §1, §2

With `O=C(O)CCCc1ccccc1` [4-PBA, 4-phenylbutyric acid] the body mass [1] was “restored hexb^−/− mice weights to wildtype levels”, the “nuclear localization of p-eIF2α” value ([2]; hexb−/− mice after 4-PBA treatment vs untreated) was “increase in the nuclear localization” and the “number of cytosolic p-eIF2α-positive neurons in spinal cord” value ([2]; hexb−/− mice treated with 4-PBA from 40 d, perfused at 80 d, vs untreated) was “significant reduction”. The “number of cCas7 positive neurons in spinal cord” value [3] was “significant reduction in the number of cCas7 positive neurons; also recorded: suppressed c-Cas7”, the ATF6 expression [4] was “upregulation of ATF6” and the C-boutons [5] was “more prevalent around AHNs motor neurons and throughout the anterior horn”. The “ChAT staining / ChAT-positive motor neurons in anterior horn” value [5] was “ChAT staining was normalized; also recorded: intense cytosolic ChAT staining within viable AHNs; also recorded: ChAT-positive motor neurons were maintained in anterior horn”, the “GFAP staining in anterior horn” value [5] was “intense GFAP staining” and the “Calretinin-positive interneurons within the anterior horn region” value [6] was “very little Calretinin-positive interneurons”. For the same molecule, the “righting reflex / righting response time” value ([7]; hexb−/− mice treated with 4-PBA vs untreated) was “significantly faster righting response; also recorded: significantly faster righting reflex”, the “delay in righting response time impairment” value ([7]; treated vs untreated hexb−/− mice (untreated impaired by 17 weeks of age)) was 2 week and the “survival / life span (in words)” value ([8]; hexb−/− mice with 4-PBA vs without, Mantel-Cox P<0.001) was “beneficial impact on lifespan; also recorded: significant improvement in motor neuromuscular function and life span; also recorded: lived significantly longer”. The median survival ([8]; hexb−/− mice, 4-PBA 4 mg/ml (0.4% w/v) in drinking water from 40 d of age, untreated 127 days) was 143 days, the “increase of median survival over untreated hexb−/− mice” value ([8]; hexb−/− mice, 4-PBA 4 mg/ml in drinking water from 40 d of age) was 16 days and the “muscle fiber cross-sectional area vs hexb+/+ (in words)” value [9] was “no significant difference; also recorded: maintained normal cross section area of muscle fibers”. For the same molecule, the “muscle fiber cross-sectional area (average)” value ([9]; hexb+/+ ~1000, untreated hexb−/− ~570) was 900 um^2 and 850 um^2 and the wire hang time [10] was “significant increase in wire hang time; also recorded: longer wire hang”.

Source: patent US12042476B2, “Methods for the treatment of lysosomal storage diseases” (McMaster University, priority 2022, dated 2024)
